In PubChem BioAssay AID1259411 (Chemical Carcinogenesis Research Information System (CCRIS), 2018):
Activity calls are given as the source filed them. How the calls were made is not given here.

Test system: rodent carcinogenicity bioassays, tumor incidence
Assay: CCRIS carcinogenicity studies
Settings: Species: RAT
Summary of the method: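 Archive of carcinogenicity, mutagenicity, tumor promotion and tumor inhibition results drawn from journals, NCI reports and other sources, expert-reviewed; covers 1985-2011 and is no longer updated.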

Measured: carcinogen call

CCN(N=O)C(N)=O
active: Strain/Sex: F344/MALE, Route: GAVAGE, Dose: 0, 2.4 MG IN 0.2 ML ETHYL ACETATE/CORN OIL (1:1) 2/WK FOR 28 WK (TOTAL DOSE: 135 MG) (STUDY DURATION: 80 WK), Tumor Site: Type of Lesion: FORESTOMACH: CARCINOMA, LUNG: CARCINOMA OR ADENOMA active; positive | Strain/Sex: F344/MALE, Route: GAVAGE, Dose: 0, 6 MG/ML (TOTAL DOSE 0; 0.4 MMOL) IN 2 ML ETHYL ACETATE AND CORN OIL (1:2) 2/WK FOR 20 WK (STUDY DURATION: LIFETIME), Dose: 0, 6 MG/ML (TOTAL DOSE 0; 0.4 MMOL) IN 2 ML ETHYL ACETATE AND CORN OIL (1:2) 2/WK FOR 20 WK (STUDY DURATION: LIFETIME), Tumor Site: Type of Lesion: FORESTOMACH: SQUAMOUS CELL CARCINOMA, THYROID: C-CELL TUMOR, FOLLICULAR CELL TUMOR, LUNG: TUMOR, NERVOUS SYSTEM: TUMOR;, Tumor Site: Type of Lesion: FORESTOMACH: SQUAMOUS CELL CARCINOMA, THYROID: C-CELL TUMOR, FOLLICULAR CELL TUMOR, LUNG: TUMOR, NERVOUS SYSTEM: TUMOR active; positive | Strain/Sex: F344/MALE, Route: GAVAGE, Dose: 0, 6 MG/ML IN 0.2 ML ETHYL ACETATE AND CORN OIL 2/WK FOR 20 WK (STUDY DURATION: LIFESPAN), Tumor Site: Type of Lesion: FORESTOMACH: TUMOR, THYROID: C-CELL TUMOR, FOLLICULAR CELL TUMOR, LUNG: TUMOR, NERVOUS SYSTEM: TUMOR, COLON: TUMOR, PERI, Tumor Site: Type of Lesion: FORESTOMACH: TUMOR, THYROID: C-CELL TUMOR, FOLLICULAR CELL TUMOR, LUNG: TUMOR, NERVOUS SYSTEM: TUMOR, COLON: TUMOR, PERI active; positive | Strain/Sex: F344/MALE, Route: GAVAGE, Dose: 0, 12 MG/ML (TOTAL DOSE 0; 1.1 MMOL) IN 2 ML ETHYL ACETATE AND CORN OIL (1:2) 2/WK FOR 28 WK (STUDY DURATION: LIFETIME), Dose: 0, 12 MG/ML (TOTAL DOSE 0; 1.1 MMOL) IN 2 ML ETHYL ACETATE AND CORN OIL (1:2) 2/WK FOR 28 WK (STUDY DURATION: LIFETIME), Tumor Site: Type of Lesion: FORESTOMACH: SQUAMOUS CELL CARCINOMA, LUNG: TUMOR, ILEUM/JEJUNUM: TUMOR, BODY CAVITY: MESOTHELIOMA, ZYMBAL GLAND: TUMOR;, Tumor Site: Type of Lesion: FORESTOMACH: SQUAMOUS CELL CARCINOMA, LUNG: TUMOR, ILEUM/JEJUNUM: TUMOR, BODY CAVITY: MESOTHELIOMA, ZYMBAL GLAND: TUMOR active; positive | Strain/Sex: F344/MALE, Route: GAVAGE, Dose: 0, 12 MG/ML IN 0.2 ML ETHYL ACETATE AND CORN OIL 2/WK FOR 28 WK (STUDY DURATION: LIFESPAN), Tumor Site: Type of Lesion: FORESTOMACH: TUMOR, LUNG: TUMOR, ILEUM/JEJUNUM: TUMOR, PERITONEUM: MESOTHELIOMA, Tumor Site: Type of Lesion: FORESTOMACH: TUMOR, LUNG: TUMOR, ILEUM/JEJUNUM: TUMOR, PERITONEUM: MESOTHELIOMA active; positive | Strain/Sex: F344/MALE, Route: ORAL, Dose: 0, 0.3, 1, 3, 10 PPM IN DRINKING WATER FOR 104 WK (STUDY DURATION: 111 WK), Dose: 0, 0.3, 1, 3, 10 PPM IN DRINKING WATER FOR 104 WK (STUDY DURATION: 111 WK), Tumor Site: Type of Lesion: BRAIN: GLIOMA, MAMMARY GLAND: FIBROMA, LUNG: ADENOMA, LUNG: ADENOCARCINOMA, PERITONEUM: MESOTHELIOMA, Tumor Site: Type of Lesion: BRAIN: GLIOMA, MAMMARY GLAND: FIBROMA, LUNG: ADENOMA, LUNG: ADENOCARCINOMA, PERITONEUM: MESOTHELIOMA active; positive | Strain/Sex: SPRAGUE-DAWLEY/FEMALE, Route: IN UTERO, Dose: 0, 2.5, 10 MG/KG BW ONCE ADMINISTERED INTRAVENOUSLY ON DAY 15 OF GESTATION (STUDY DURATION: 104 WK), Dose: 0, 2.5, 10 MG/KG BW ONCE ADMINISTERED INTRAVENOUSLY ON DAY 15 OF GESTATION (STUDY DURATION: 104 WK), Tumor Site: Type of Lesion: BRAIN: GLIOMA active; positive | Strain/Sex: SPRAGUE-DAWLEY/MALE, Route: IN UTERO, Dose: 0, 2.5, 10 MG/KG BW ONCE ADMINISTERED INTRAVENOUSLY ON DAY 15 OF GESTATION (STUDY DURATION: 104 WK), Dose: 0, 2.5, 10 MG/KG BW ONCE ADMINISTERED INTRAVENOUSLY ON DAY 15 OF GESTATION (STUDY DURATION: 104 WK), Tumor Site: Type of Lesion: BRAIN: GLIOMA active; positive | Strain/Sex: SPRAGUE-DAWLEY, Route: INTRAVENOUSLY TO MATERNAL RATS AT 15 D OF GESTATION, PROGENY OBSERVED, Dose: 0, 2.5, 6.25, 10.0 MG/KG BW (STUDY DURATION: 24 MO), Dose: 0, 2.5, 6.25, 10.0 MG/KG BW (STUDY DURATION: 24 MO), Tumor Site: Type of Lesion: BRAIN: OLIGODENDRO-GLIOMA AND MIXED GLIOMA active; positive | Strain/Sex: SPRAGUE-DAWLEY, Route: INTRAVENOUSLY TO MOTHERS AT 15 D OF GESTATION, PROGENY OBSERVED, Dose: 0, 2.5, 6.25, 10.0 MG/KG BW (STUDY DURATION: 2 YRS), Dose: 0, 2.5, 6.25, 10.0 MG/KG BW (STUDY DURATION: 2 YRS), Tumor Site: Type of Lesion: CRANIAL NERVE: TUMORS active; positive | Strain/Sex: SPRAGUE-DAWLEY, Route: INTRAVENOUSLY TO MOTHERS AT 15 D OF GESTATION, PROGENY OBSERVED, Dose: 0, 2.5, 6.25, 10.0 MG/KG BW (STUDY DURATION: 2 YRS), Dose: 0, 2.5, 6.25, 10.0 MG/KG BW (STUDY DURATION: 2 YRS), Tumor Site: Type of Lesion: SPINAL NERVE: TUMORS active; positive | Strain/Sex: SPRAGUE-DAWLEY, Route: INTRAVENOUSLY TO MOTHERS AT 15 D OF GESTATION, PROGENY OBSERVED, Dose: 0, 2.5, 6.25, 10.0 MG/KG BW (STUDY DURATION: 24 MO), Dose: 0, 2.5, 6.25, 10.0 MG/KG BW (STUDY DURATION: 24 MO), Tumor Site: Type of Lesion: SPINAL CORD: TUMORS active; positive | Strain/Sex: WISTAR/MALE, FEMALE, Route: SUBCUTANEOUS, Dose: 0, 60 MG/KG BW ADMINISTERED TO 3 DAY OLD RATS (STUDY DURATION: 12 MO), Tumor Site: Type of Lesion: CENTRAL NERVOUS SYSTEM: GLIOMA active; positive | Strain/Sex: WISTAR/MALE, FEMALE, Route: TRANSPLACENTAL, Dose: 0, 60 MG/KG BW INTRAVENOUS DOSE ADMINISTERED TO LATE GESTATIONAL RATS AND OFFSPRING OBSERVED FOR 12 MO (STUDY DURATION:, Tumor Site: Type of Lesion: CENTRAL NERVOUS SYSTEM: GLIOMA active; positive | Strain/Sex: WISTAR/MALE, Route: INTRAPERITONEAL, Dose: 300 MG/KG BW 1/WK FOR 45 WK (STUDY DURATION: 45 WK), Tumor Site: Type of Lesion: INTEGUMENTARY SYSTEM (SUBCUTANEOUS TISSUE): SPINDLE CELL SARCOMA active; positive
